From patent US8552208B2, “Analogs of tetramic acid” (University of Tennesseee Research Foundation, priority 2007, dated 2013)
≈ marks a conversion by molar mass, not a printed value. Like-named read-outs stand apart in the source and are kept apart here.

How the values were obtained:
[1] = test system: Streptococcus pyogenes ATCC 700294; experiment: Antibacterial activity assay (MIC, broth dilution); assay type: cell-based; conditions: ATCC700294; Streptococcus pyogenes ATCC 700294; read-out: MIC, SP
[2] = test system: Streptococcus pneumoniae DAW30EC; experiment: Antibacterial activity assay (MIC, broth dilution); assay type: cell-based; conditions: Streptococcus pneumoniae DAW30EC; read-out: MIC, SPn
[3] = Cytotoxicity assay (MTT); assay type: cell-based, monkey; conditions: monkey, Vero cells, 72 hours, MTT, read-out: IC50 (Cytotoxicity): Concentration which reduces viability of Vero kidney cells by 50%
Description: (§1) Cytotoxicity assays of drugs of Formula I of Example 3 and of Formula II of Example 5 were performed using the Vero monkey kidney cell line (ATCC, CCL-81). Vero cells were grown in tissue culture flasks in Dulbecco's Modified Eagle's Medium (ATCC) supplemented with 10% fetal bovine serum and maintained in a humidified incubator (37° C., 5% CO2). Cells were removed with a cell scraper, collected by centrifugation and then suspended in fresh medium at ˜10^6 cells/mL. The cell suspensions were dispensed into 96-well microtiter plates (100 μl/well) and incubated for 18 hours at 37° C. before being used for cytotoxicity assays. Test compounds were subsequently added at concentrations ranging from 400-0.024 μg/mL and 0.1% vol/vol of Triton-X 100, which causes 100% death of cells, was included as a control. After incubating cells and compounds for 72 hours in humid air (37° C., 5% CO2) the cytopathic effects of compounds were determined using the MTT Cell Proliferation Assay (ATCC, Cat No. 30-1010K). The MTT solution reagent (10 μl) was added to each well and plates incubated at 37° C. until sufficient purple color development occurred in cells (3 hours). After detergent cell lysis, the purple formazan product was measured at 570 nm in a Synergy HT Biotek microplate reader. IC50 data was obtained from dose response curves plotted from percentage activity versus log10 concentration using Graphpad prism 5.

[4] = test system: Vero monkey kidney cell line (ATCC, CCL-81); experiment: Cytotoxicity assay (MTT); assay type: cell-based; conditions: IC50 divided by MIC against S. aureus 8325
Description: as §1

[5] = test system: Bacillus anthracis Sterne 34F2; experiment: microbe, parasite or virus in culture; assay type: cell-based; conditions: STERNE34F2, read-out: MIC, BA
[6] = test system: Mycobacterium tuberculosis H37 Rv; experiment: Antibacterial activity assay (MIC, broth dilution); assay type: cell-based; conditions: H37RV, 168 h; Mycobacterium tuberculosis H37 Rv; […]; read-out: MIC, TB
[7] = test system: Enterococcus faecalis ATCC 33186; experiment: Antibacterial activity assay (MIC, broth dilution); assay type: cell-based; conditions: ATCC33186; Enterococcus faecalis ATCC 33186; read-out: MIC, EF
[8] = test system: MRSA (ATCC 35391) biofilm; experiment: Calgary Biofilm Device anti-biofilm activity; assay type: cell-based, Staphylococcus aureus; conditions: for MBC / MIC: Staphylococcus aureus; for MBC: read-out: MBEC = Minimum Biofilm Eradication Concentration; for MIC: read-out: MBIC = Minimum Biofilm Inhibitory Concentration
[9] = test system: MSSA (ATCC 25293) biofilm; experiment: Calgary Biofilm Device anti-biofilm activity; assay type: cell-based; conditions: Staphylococcus aureus; for MBC: read-out: MBEC = Minimum Biofilm Eradication Concentration; for MIC: read-out: MBIC = Minimum Biofilm Inhibitory Concentration
[10] = test system: Bacillus subtilis ATCC 23857; experiment: Antibacterial activity assay (MIC, broth dilution); assay type: cell-based; conditions: ATCC23857; Bacillus subtilis ATCC 23857; read-out: MIC, BS
[11] = test system: Methicillin sensitive Staphylococcus aureus 8325 ATCC 35556; experiment: Antibacterial activity assay (MIC, broth dilution); assay type: cell-based; conditions: ATCC 35556 / MSSA; Methicillin sensitive Staphylococcus aureus 8325 ATCC 35556; read-out: MIC, MSSA
[12] = test system: S. epidermidis (RP62A) biofilm; experiment: Calgary Biofilm Device anti-biofilm activity; assay type: cell-based; conditions: Staphylococcus epidermidis; for MBC: read-out: MBEC = Minimum Biofilm Eradication Concentration; for MIC: read-out: MBIC = Minimum Biofilm Inhibitory Concentration
[13] = test system: Propionibacterium acnes ATCC 6919; experiment: Antibacterial activity assay (MIC, broth dilution); assay type: cell-based; conditions: Cutibacterium acnes, ATCC6919; Propionibacterium acnes ATCC 6919; read-out: MIC, PA
[14] = test system: Methicillin Resistant Staphylococcus aureus ATCC 33591; experiment: Antibacterial activity assay (MIC, broth dilution); assay type: cell-based; conditions: ATCC 33591 / MRSA, read-out: MIC, MRSA
[15] = test system: clinical isolates of MSSA (methicillin sensitive S. aureus); assay type: cell-based
[16] = test system: clinical isolates of MRSA (methicillin resistant S. aureus); assay type: cell-based
[17] = Vero monkey kidney cells (ATCC CCL-81)
[18] = MRSA biofilm, triplicate runs listed singly
[19] = MSSA biofilm, triplicate runs listed singly
[20] = S. epidermidis biofilm, triplicate runs listed singly

Structure (SMILES) | MIC [1] | MIC [2] | IC50 at 72 h [3, 17] | IC50/MIC = Selectivity (therapeutic) index [4] | MIC [5] | MIC [6] | MIC [7] | MIC [8, 18] | MBC [9, 19] | MIC [9, 19] | MIC [10] | MIC [11] | MIC [12, 20] | MIC [13] | MIC [14] | also measured
CCCCCCCCCCN1C(=O)/C(=C(/C)O)C(=O)[C@@H]1C(C)C [Compound 13i, (S,Z)-1-decyl-3-(1-hydroxyethylidene)-5-isopropylpyrrolidine-2,4-dione] | 25 µg/mL (≈ 77.3 µM) | 6.25 µg/mL (≈ 19.3 µM) | 7 µg/mL | 8.8 | 0.8 µg/mL (≈ 2.47 µM) | 12.5 µg/mL (≈ 38.6 µM) | 0.8 µg/mL (≈ 2.47 µM) | 0.8 µg/mL (≈ 2.47 µM) | 100 µg/mL (≈ 309 µM) | 0.8 µg/mL (≈ 2.47 µM) | 0.4 µg/mL (≈ 1.24 µM) | 0.8 µg/mL (≈ 2.47 µM) | 0.8 µg/mL (≈ 2.47 µM) | 0.4 µg/mL (≈ 1.24 µM) | 0.8 µg/mL (≈ 2.47 µM) | MBC [8, 18]: 25 µg/mL (≈ 77.3 µM); MBC [12, 20]: 25 µg/mL (≈ 77.3 µM)
CCCCN1C(=O)/C(=C(/C)O)C(=O)[C@@H]1CC(C)C [Compound 13j, (S,Z)-1-butyl-3-(1-hydroxyethylidene)-5-isobutylpyrrolidine-2,4-dione] | > 200 µg/mL | 100 µg/mL (≈ 395 µM) | – | 81.4 | 12.5 µg/mL (≈ 49.3 µM) | 100 µg/mL (≈ 395 µM) | 1.6 µg/mL (≈ 6.32 µM) | – | – | – | 6.25 µg/mL (≈ 24.7 µM) | 3.12 µg/mL (≈ 12.3 µM) | – | 0.8 µg/mL (≈ 3.16 µM) | 6.25 µg/mL (≈ 24.7 µM) | IC50 at 72 h [3]: 254 µg/mL; Antibiotic MIC ([15]; isolate MSSA-11): 12.5 µg/mL; Antibiotic MIC ([15]; isolate MSSA-12): 6.25 µg/mL; Antibiotic MIC ([15]; isolate MSSA-13): 12.5 µg/mL; Antibiotic MIC ([15]; isolate MSSA-14): 25 µg/mL; Antibiotic MIC ([15]; isolate MSSA-15): 3.12 µg/mL; Antibiotic MIC ([15]; isolate MSSA-16): 6.25 µg/mL; Antibiotic MIC ([15]; isolate MSSA-17): 6.25 µg/mL; Antibiotic MIC ([15]; isolate MSSA-18): 6.25 µg/mL; Antibiotic MIC ([15]; isolate MSSA-19): 3.12 µg/mL; Antibiotic MIC ([15]; isolate MSSA-20): 25 µg/mL; Antibiotic MIC ([16]; isolate MRSA-1): 50 µg/mL; Antibiotic MIC ([16]; isolate MRSA-2): 25 µg/mL; Antibiotic MIC ([16]; isolate MRSA-3): 25 µg/mL; Antibiotic MIC ([16]; isolate MRSA-4): 25 µg/mL; Antibiotic MIC ([16]; isolate MRSA-5): 25 µg/mL; Antibiotic MIC ([16]; isolate MRSA-6): 25 µg/mL; Antibiotic MIC ([16]; isolate MRSA-7): 50 µg/mL; Antibiotic MIC ([16]; isolate MRSA-9): 6.25 µg/mL; Antibiotic MIC ([16]; isolate MRSA-10): 50 µg/mL
CC(C)=CCCC(C)CCN1C(=O)/C(=C(/C)O)C(=O)[C@@H]1CC(C)C (stereo partly drawn) [Compound 13m, (5S,Z)-1-(3,7-dimethyloct-6-enyl)-3-(1-hydroxyethylidene)-5-isobutylpyrrolidine-2,4-dione] | 25 µg/mL (≈ 74.5 µM) | 3.25 µg/mL (≈ 9.69 µM) | – | 18.3 | 0.4 µg/mL (≈ 1.19 µM) | 200 µg/mL (≈ 596 µM) | 0.8 µg/mL (≈ 2.38 µM) | 0.8 µg/mL (≈ 2.38 µM) | 200 µg/mL (≈ 596 µM) | 0.8 µg/mL (≈ 2.38 µM) | 0.8 µg/mL (≈ 2.38 µM) | 0.4 µg/mL (≈ 1.19 µM) | 0.4 µg/mL (≈ 1.19 µM) | 0.4 µg/mL (≈ 1.19 µM) | 0.8 µg/mL (≈ 2.38 µM) | IC50 at 72 h [3]: 7.3 µg/mL; MBC [8, 18]: 50 µg/mL (≈ 149 µM); MBC [12, 20]: 200 µg/mL (≈ 596 µM)
CCCCCCCCCCN1C(=O)/C(=C(/C)O)C(=O)[C@@H]1Cc1ccccc1 [Compound 13n, (S,Z)-5-benzyl-1-decyl-3-(1-hydroxyethylidene)pyrrolidine-2,4-dione] | 50 µg/mL (≈ 135 µM) | 12.5 µg/mL (≈ 33.6 µM) | 21.1 µg/mL | 105.5 | 0.2 µg/mL (≈ 0.538 µM) | 50 µg/mL (≈ 135 µM) | 0.8 µg/mL (≈ 2.15 µM) | – | – | – | 0.4 µg/mL (≈ 1.08 µM) | 0.2 µg/mL (≈ 0.538 µM) | – | 0.4 µg/mL (≈ 1.08 µM) | 0.8 µg/mL (≈ 2.15 µM) | Antibiotic MIC ([15]; isolate MSSA-11): 0.8 µg/mL; Antibiotic MIC ([15]; isolate MSSA-12): 0.8 µg/mL; Antibiotic MIC ([15]; isolate MSSA-13): 0.8 µg/mL; Antibiotic MIC ([15]; isolate MSSA-14): 1.6 µg/mL; Antibiotic MIC ([15]; isolate MSSA-15): 0.2 µg/mL; Antibiotic MIC ([15]; isolate MSSA-16): 0.8 µg/mL; Antibiotic MIC ([15]; isolate MSSA-17): 0.8 µg/mL; Antibiotic MIC ([15]; isolate MSSA-18): 0.8 µg/mL; Antibiotic MIC ([15]; isolate MSSA-19): 0.4 µg/mL; Antibiotic MIC ([15]; isolate MSSA-20): 0.8 µg/mL; Antibiotic MIC ([16]; isolate MRSA-1): 1.6 µg/mL; Antibiotic MIC ([16]; isolate MRSA-2): 1.6 µg/mL; Antibiotic MIC ([16]; isolate MRSA-3): 1.6 µg/mL; Antibiotic MIC ([16]; isolate MRSA-4): 0.8 µg/mL; Antibiotic MIC ([16]; isolate MRSA-5): 0.8 µg/mL; Antibiotic MIC ([16]; isolate MRSA-6): 0.8 µg/mL; Antibiotic MIC ([16]; isolate MRSA-7): 0.8 µg/mL; Antibiotic MIC ([16]; isolate MRSA-8): 0.2 µg/mL; Antibiotic MIC ([16]; isolate MRSA-9): 0.8 µg/mL; Antibiotic MIC ([16]; isolate MRSA-10): 0.8 µg/mL
CCCCCCCCCCN1C(=O)/C(=C(/C)O)C(=O)[C@H]1CC(C)C [Compound 13o, (R,Z)-1-decyl-3-(1-hydroxyethylidene)-5-isobutylpyrrolidine-2,4-dione] | 50 µg/mL (≈ 148 µM) | 6.25 µg/mL (≈ 18.5 µM) | 6.3 µg/mL | 15.8 | 0.8 µg/mL (≈ 2.37 µM) | 25 µg/mL (≈ 74.1 µM) | 1.6 µg/mL (≈ 4.74 µM) | – | – | – | 0.8 µg/mL (≈ 2.37 µM) | 0.4 µg/mL (≈ 1.19 µM) | – | 0.8 µg/mL (≈ 2.37 µM) | 0.8 µg/mL (≈ 2.37 µM) | –
CO[C@H]1/C=C/O[C@@]2(C)Oc3c(C)c(O)c4c(O)c(c(/C=N/N5CCN(C)CC5)c(O)c4c3C2=O)NC(=O)/C(C)=C\C=C\[C@H](C)[C@H](O)[C@@H](C)[C@@H](O)[C@@H](C)[C@H](OC(C)=O)[C@@H]1C [Rifampicin, rifampicin, reference compound] | – | – | – | – | – | – | – | < 0.2 µg/mL | 100 µg/mL (≈ 122 µM) | 0.4 µg/mL (≈ 0.486 µM) | – | – | < 0.2 µg/mL | – | – | MBIC = Minimum Biofilm Inhibitory Concentration [8, 18]: <0.2 µg/mL
CN[C@H](CC(C)C)C(=O)N[C@H]1C(=O)N[C@@H](CC(N)=O)C(=O)N[C@H]2C(=O)N[C@H]3C(=O)N[C@H](C(=O)N[C@H](C(=O)O)c4cc(O)cc(O)c4-c4cc3ccc4O)[C@H](O)c3ccc(c(Cl)c3)Oc3cc2cc(c3O[C@@H]2O[C@H](CO)[C@@H](O)[C@H](O)[C@H]2O[C@H]2C[C@](C)(N)[C@H](O)[C@H](C)O2)Oc2ccc(cc2Cl)[C@H]1O [Vancomycin, vancomycin, reference compound] | – | – | – | – | – | – | – | – | – | – | – | – | – | – | – | MBC [8]: > 400 µg/mL; MIC [8]: 1.6 µg/mL (≈ 1.1 µM); MBC [9]: > 400 µg/mL; MBC [12]: > 400 µg/mL; MIC [12]: 12.5 µg/mL (≈ 8.63 µM)
